Assay: xn = mol fraction of the nth substance listed

CCC(C)N (configuration not stated) + O
viscosity [mPa·s], 101.33 kPa
Conditions	x1 = 0.1	x1 = 0.1999	x1 = 0.3	x1 = 0.3998	x1 = 0.4994	x1 = 0.5999	x1 = 0.6998	x1 = 0.7997	x1 = 0.8999
298.15 K	2.276	2.556	2.232	1.774	1.322	0.9973	0.7605	0.5992	0.4885
303.15 K	1.937	2.173	1.917	1.538	1.165	0.8899	0.6906	0.552	0.4543
308.15 K	1.669	1.865	1.659	1.341	1.033	0.8024	0.6317	0.5102	0.4248
313.15 K	1.453	1.616	1.443	1.18	0.921	0.7245	0.5794	0.4736	0.3983
318.15 K	1.275	1.417	1.269	1.047	0.8266	0.6602	0.534	0.4409	0.3744
323.15 K	1.138	1.25	1.123	0.9361	0.7467	0.61	0.4935	0.4113	0.3528

CCCCCCCCCCCCCC[P+](CCCCCC)(CCCCCC)CCCCCC.c1nnc[n-]1 + O
Conditions	viscosity [mPa·s]
298.15 K, 100 kPa, x2 = 0.7956	114

CCCCCCO + O
viscosity [mPa·s], 101 kPa
Conditions	298.15 K	308.15 K	318.15 K
x2 = 0.0013	–	–	2.573
x2 = 0.0042	4.567	3.388	–
x2 = 0.0554	–	–	2.513
x2 = 0.0593	4.427	3.295	–
x2 = 0.1019	–	–	2.475
x2 = 0.1079	4.355	3.237	–
x2 = 0.1483	4.324	3.209	2.447
x2 = 0.1875	–	–	2.432
x2 = 0.1933	4.314	3.193	–
x2 = 0.2248	–	–	2.425
x2 = 0.2367	4.322	3.192	–
x2 = 0.2673	4.341	3.198	2.427
x2 = 0.2981	4.369	3.213	–
x2 = 0.3116	–	–	2.439

CCOCC + O
298.15 K, 101 kPa
Conditions	viscosity [mPa·s]
x1 = 0.00334	0.9366
x1 = 0.00369	1.053
x1 = 0.00509	0.9597
x1 = 0.00551	1.073
x1 = 0.00769	0.9959
x1 = 0.00866	1.107
x1 = 0.00871	1.01
x1 = 0.0107	1.132
x1 = 0.0113	1.138
x1 = 0.0149	1.088
x1 = 0.973	0.27
x2 = 0.0179	0.269

CN(C)C(=N)NC(=N)N.Cl + O
viscosity [mPa·s]
Conditions	298.15 K	303.15 K	308.15 K	313.15 K	318.15 K
100 kPa, x1 = 0.00018	0.894	–	–	–	–
100 kPa, x1 = 0.0003598	0.896	0.803	–	–	–
100 kPa, x1 = 0.0005412	0.898	0.805	0.726	–	–
100 kPa, x1 = 0.0007212	0.9	–	–	0.663	–
100 kPa, x1 = 0.0009	–	–	–	–	0.607
100 kPa, x1 = 0.0009014	0.902	0.809	0.73	0.665	–
100 kPa, x1 = 0.001079	0.904	0.811	0.732	0.667	–
100 kPa, x1 = 0.001259	0.906	–	0.734	0.669	–
100 kPa, x1 = 0.001439	0.908	0.815	0.736	0.671	–
100 kPa, x1 = 0.001619	0.91	0.817	0.738	0.673	–
100 kPa, x1 = 0.001798	0.912	0.819	0.74	0.675	–
100 kPa, x1 = 0.0018	–	–	0.739	0.675	0.613
100 kPa, x1 = 0.0027	–	–	0.75	0.68	0.622
101 kPa, x1 = 0.00011	–	–	0.721	–	0.597
101 kPa, x1 = 0.000241	–	–	0.723	–	0.598
101 kPa, x1 = 0.000481	–	–	0.726	–	0.6
101 kPa, x1 = 0.000722	0.903	–	0.729	–	0.601
101 kPa, x1 = 0.000965	0.907	–	0.732	–	0.604
101 kPa, x1 = 0.00121	0.91	–	0.735	–	0.606

C[NH+]1CCCC1=O.Cc1ccc(S(=O)(=O)[O-])cc1 + O
viscosity [mPa·s], 100 kPa
Conditions	x1 = 0.00179	x1 = 0.003588	x1 = 0.005313	x1 = 0.008042	x1 = 0.01069	x1 = 0.01417	x1 = 0.02116	x1 = 0.02631	x1 = 0.03141
293.15 K	1.079	1.149	1.212	1.311	1.404	1.533	1.806	2.029	2.274
298.15 K	0.9575	–	1.073	1.157	–	1.358	–	1.819	2.048
303.15 K	0.8523	0.9062	0.9554	–	–	1.201	1.42	1.611	1.827
308.15 K	0.7695	0.8124	0.8523	0.9156	0.9784	–	–	1.444	1.64

Cc1cn([C@H]2CC(O)[C@@H](CO)O2)c(=O)[nH]c1=O (some centres not stated) + O
viscosity [mPa·s], 101.3 kPa
Conditions	x1 = 9.02e-05	x1 = 0.000159	x1 = 0.0002266	x1 = 0.0003081	x1 = 0.0004541	x1 = 0.0004775
298.15 K	0.893	0.894	0.895	0.897	0.899	0.9
308.15 K	0.721	0.722	0.723	0.724	0.726	0.727
318.15 K	0.598	0.598	0.599	0.6	0.602	0.602

O=P([O-])(O)O.[NH4+] + O
viscosity [mPa·s], 101 kPa
Conditions	293.15 K	303.15 K	313.15 K	323.15 K
x1 = 0.017	1.312	1.049	0.855	0.71
x1 = 0.038	1.826	1.442	1.17	0.972
x1 = 0.063	–	2.196	1.749	1.438
x1 = 0.095	–	–	–	2.325

O=[PH2][O-].O=[PH2][O-].[Mn+2] + O
Conditions	viscosity [mPa·s]
298.15 K, 101.33 kPa, x1 = 0.0137	1.68

OCCOCCOCCOCCOCCOCCOCCO + O
viscosity [mPa·s], 100 kPa
Conditions	293.15 K	298.15 K	303.15 K	308.15 K	313.15 K	318.15 K	323.15 K
x2 = 0.059	97.27	73.66	57.03	45.14	36.26	29.64	24.53
x2 = 0.088	93.78	71.34	53.69	42.57	34.29	28	23.21
x2 = 0.188	92.26	69.66	53.76	42.35	33.98	27.72	22.88
x2 = 0.221	92.02	69.89	53.68	42.29	33.97	27.67	22.86

OCCOCCOCCOCCOCCOCCOCCOCCO + O
viscosity [mPa·s], 100 kPa
Conditions	293.15 K	298.15 K	303.15 K	308.15 K	313.15 K	318.15 K	323.15 K
x2 = 0.042	108.4	81.84	63.33	50.05	40.2	32.83	27.17
x2 = 0.111	107.4	81.02	62.63	49.38	39.67	32.32	26.74
x2 = 0.267	103	77.64	60.34	47.5	38.03	30.97	25.55
x2 = 0.294	98.4	74.46	57.33	45.14	36.19	29.5	24.36

CC(=O)CC(C)C + O=C1CCCCC1
298.15 K, 101 kPa
Conditions	viscosity [mPa·s]
x1 = 0.1218	1.58
x1 = 0.2067	1.371
x1 = 0.3146	1.163
x1 = 0.3931	1.037
x1 = 0.534	0.872
x1 = 0.6373	0.773
x1 = 0.7694	0.672
x1 = 0.888	0.599

CCCCCCCCCCCCCC[P+](CCCCCC)(CCCCCC)CCCCCC.c1nnc[n-]1 + O=C=O
Conditions	viscosity [mPa·s]
298.15 K, 100 kPa, x2 = 0.5	638

CCOCC + O=S(=O)(O)O
303.15 K, 101 kPa
Conditions	viscosity [mPa·s]
x1 = 0.00853	206.9
x1 = 0.01735	203
x2 = 0.05093	2.73
x2 = 0.07611	3.096
x2 = 0.1322	4.36
x2 = 0.1739	5.79
x2 = 0.2412	9.824
x2 = 0.3269	21.94
x2 = 0.3684	34.8
x2 = 0.3933	47.52
x2 = 0.4239	67.01
x2 = 0.4513	87.88
x2 = 0.5139	134.5
x2 = 0.5527	153.7
x2 = 0.5826	161.5
x2 = 0.636	160.6
x2 = 0.6604	156.7
x2 = 0.729	133.8
x2 = 0.8088	127.2
x2 = 0.8194	127.2
x2 = 0.891	138.2
x2 = 0.9089	145.2
x2 = 0.9478	169.2
x2 = 0.9658	187.2
x2 = 0.9684	189.7
x2 = 0.9737	196.3

O=C1CCCCC1 + OCCO
293.15 K, 101.33 kPa
Conditions	viscosity [mPa·s]
x2 = 0.1495	2.735
x2 = 0.2349	3.114
x2 = 0.293	3.566
x2 = 0.4345	4.882
x2 = 0.5042	5.922
x2 = 0.5172	6.179
x2 = 0.6565	9.855
x2 = 0.6965	11.02
x2 = 0.7152	11.2
x2 = 0.7398	12.4
x2 = 0.8522	17.59
x2 = 0.8845	18.73

— the CheMixHub viscosity set
